Test results: patent US9880171B2, “iASPP phosphorylation and metastatic potential” (LUDWIG INSTITUTE FOR CANCER RESEARCH LTD., priority 2012, dated 2018)

How the values were obtained:
[1] = test system: iASPP phosphorylated at ser 113; assay: phospho-ser113 iASPP western blot in nocodazole-treated U2OS cells; assay type: cell-based, human; details: nocodazole 1 μM 16 hours, 0.5 μM JNJ-7706621
Experimental: For the floating and adherent cells, the rounded (mitotic rich) cells were separated from the adherent cells after 24 hours treatment with nocodazole. Lysates were separated on a 6% SDS PAGE gel and proteins analysed by conventional western blotting. iASPP phosphor-[…] was detected using the antibody from rabbit 42310 as described in FIG. 23A, and total iASPP was detected by re-probing the blot with antibody LX049.3. Nucleolin was used as a loading control. […] Consistent with enhanced iASPP phosphorylation in nocodazole arrested mitotic cells, enhanced iASPP phosphorylation on ser 113 was also observed in the floating cells, which are mostly mitotic cells, and not in adherent cells (FIG. 23B). Total iASPP was detected by re-probing the blot with antibody LX049.3. Additionally, the specific binding of iASPP antibody (42310) to phosphorylated ser 113 were evaluated by determining the failure of iASPP antibody (42310) to bind when the protein is not phosphorylated at ser 113. Since CDK kinase phosphorylates iASPP at ser 113, CDK inhibitor JNJ-7706621 was used to treat human U2OS cells. […] Western blotting was carried out as described in FIG. 23B using an 8% SDS PAGE gel. When compared to untreated cells, binding of phosphor-ser 113 specific […] antibody was not observed in the presence 0.5 μM JNJ-7706621 (FIG. 23C). Total iASPP was detected by re-probing the blot with antibody LX049.3.

[2] = test system: iASPP(-/-)MEFs; assay: apoptosis markers (c-PARP, c-Caspase 3) in Ras and E1A transformed iASPP(-/-) MEFs; assay type: cell-based, mouse; details: vector transfected iASPP(-/-)MEFs, 24 hours
Experimental: FIG. 9. […] A. iASPP S84D/S113D binds p53 better than WT iASPP in vitro. in vitro translated iASPP-V5 (WT) or its mutant iASPP(S84D/S113D) (S84D/S113D) (Input) were incubated with nickel beads that were pre-bound with either p53(2-193)-His (p53) or BSA (BSA) to carry out an immunoprecipitation assay (IP). The amount of iASPP that was co-immunoprecipitated with p53 was detected by an anti-V5 antibody (iASPP V5 panel) whereas the amount of p53 immunoprecipitated was detected by an anti-His antibody (p53(2-193)-His panel). B iASPP S84D/S113D binds p53 better than WT iASPP in transfected cells. iASPP-V5 (WT) or its mutant iASPP(S84D/S113D) (S84D/S113D) and p53 were co-transfected in H1299 cells (Input). […] The amount of p53 pulled down is shown in (p53 panel) whereas p53 bound iASPP was determined by anti-V5 antibody (iASPP V5 panel). […] The expression levels of known apoptosis markers were detected in immunoblotting using D214 or D175 to detect cleaved PARP (c-PARP) or caspase 3 (c-caspase 3) respectively. […] Cells were dissolved in urea buffer and apoptosis markers (cleaved PARP, caspase-3) were determined by WB.
The anti-apoptotic function of iASPP and its mutant iASPP(S84D/S113D) was tested in Ras and E1A transformed iASPP(−/−)MEFs (referred to as iASPP(−/−)MEFs). […] Apoptosis was measured by the presence of cleaved PARP (c-PARP) or active caspase 3 (c-Caspase 3). […]

In the case of `Nc1nc(Nc2ccc(S(N)(=O)=O)cc2)nn1C(=O)c1c(F)cccc1F` [JNJ-7706621], the “binding of phosphor-ser 113 specific anti-iASPP antibody (iASPP ser 113 phosphorylation)” value [1] is reported as “not observed”.

In the case of `COc1ccc(C2=N[C@@H](c3ccc(Cl)cc3)[C@@H](c3ccc(Cl)cc3)N2C(=O)N2CCNC(=O)C2)c(OC(C)C)c1` [Nutlin3], the “apoptosis (increase in c-PARP and c-Caspase 3)” value [2] is reported as “apoptosis was detected”.
